Patent publication US9463198B2, “Compositions and methods for reducing or preventing metastasis” (Infectious Disease Research Institute, priority 2013, dated 2016)

Tests used:
[1] = tested on: MADB 106 tumor cells; assay: MADB 106 lung tumor retention (LTR) in F344 rats; assay type: in vivo, F344 rat; conditions: for MADB 106 LTR, GLA vs PBS (time course): with epinephrine
Experimental: GLA (IDRI, Seattle, Wash.), dissolved in stable emulsion (SE) (2000 μg/ml) was diluted in PBS for a final concentration of 3 μg/ml-200 μg/ml (depending on the relevant experiment). One-hundred μl from the chosen concentration were injected subcutaneously (s.c.) to each animal (0.3 μg-20 μg/animal), immediately, 4 h, 12 h, 24 h, 48 h, or 96 h prior to MADB106 tumor cell inoculation (depending on the relevant experiment).
MADB 106 tumor cells metastasize only to the lungs, and lung tumor retention (LTR), which is highly indicative of the number of metastases that would have developed weeks later, is dependent upon NK cells in this model. Additionally, because the metastatic process of MADB106 is sensitive to NK activity predominantly during the first 24 h following inoculation, LTR is more reflective of in vivo NK activity levels than the number of actual metastases. The MADB 106 cell line was maintained in monolayer cultures in complete media (RPMI-1640 media supplemented with 10% heat-inactivated fetal calf serum (FCS), 50 μg/mL of gentamicin, 2 mM of 1-glutamine, 0.1 mM of non-essential amino-acids, and 1 mM of sodium pyruvate, (Biological Industries, Kibbutz Biet Haemek, Israel) in 100% humidity, 5% CO2 at 37° C. Cells were removed from the culture flask with trypsin solution (0.25% in PBS), and were washed with complete media. This cell line was used for both in vivo assessment of lung tumor retention and in vitro examination of NK cytotoxicity.
Tumor cell DNA radiolabeling for assessment of LTR was accomplished by adding 0.5 μCi/ml of ^125Iododeoxyuridine (^125IDUR, Danyel Biotech, Rehovot, Israel) to the cell culture for 24 h. For tumor cell injection, rats were lightly anesthetized with isoflurane, and 4×10^5/kg MADB106 tumor cells in 2 ml/kg PBS containing 0.1% bovine serum albumin (BSA) were injected into their tail vein. Some of the experiments also employed an additional 0.5 ml s.c. injection of epinephrine (1.8 mg/kg in females and 0.6 mg/kg in males) dissolved in a slow-release emulsion (4 parts PBS, 3 parts mineral oil (Sigma, Rehovot, Israel), and 1 part mannide-monooleate (a non-specific surface active emulsifier, Sigma, Rehovot, Israel)), for the amplification of MADB 106 retention in the lungs, allowing better group distinction. For assessment of LTR, animals were sacrificed with CO2, their lungs were removed 24 h after inoculation with ^125IDUR-labeled tumor cells, and placed in a γ-counter to assess percent radioactivity retained in this organ. LTR was calculated using the following formula: (radioactivity count of lung−background radioactivity)×100/(radioactivity count of the total injected cell suspension−background radioactivity).
Seventy-five three months old F344 male rats were randomly divided into one of 7 experimental groups administered with PBS, SE, or GLA in a dose/animal of 0.3 μg, 0.7 μg, 2.5 μg, 10 μg, and 20 μg. Each animal was injected s.c. with 100 μl of drug according to its group assignment, and, 24 h later, MADB 106 cells were inoculated (as detailed in section 4 above). Each of these 7 groups was further sub-divided into two separate groups—one that was injected with epinephrine during tumor inoculation, and the second that was injected with vehicle. Twenty-four hours later, animals were sacrificed and lungs were extracted for LTR assessment (as detailed in section 4).
In the first experiment, 75 six-month old F344 male rats were randomly divided into one of 5 injection time points preceding tumor inoculation—0 h, 4 h, 12 h, 24 h, and 48 h. Each group was further sub-divided into one of three experimental drug groups—PBS, SE, and 2 μg GLA. Each animal was injected s.c. with 100 μl according to its relevant drug group, in its designated time point. At time 0 h, MADB106 cells were injected (as detailed in section 4), along with epinephrine. […]

[2] = tested on: MADB 106 tumor cells; assay: Three week study of MADB106 metastases development in the lungs; assay type: in vivo, F344 rat; conditions: male and female rats, 2 μg GLA s.c. 24 h before inoculation, counted three weeks later, GLA reducing the number
Experimental: Eighty-six six-month old F344 rats (44 females) were divided into three experimental groups (2 μg GLA, SE, and PBS). Each animal was injected s.c. with 100 μl according to its group assignment. Twenty-four hrs later, animals were lightly anesthetized with isoflurane and 10^5 MADB 106 tumor cells (approximately 4×10^5/kg) were injected into their tail vein in 0.5 ml of PBS (supplemented with 0.1% BSA). Three weeks later, rats were killed, and their lungs removed and placed for 24 h in Bouin's solution (72% saturated picric acid solution, 23% formaldehyde (37% solution) and 5% glacial acetic acid). After being washed in ethanol, visible surface metastases were counted by a researcher uninformed of the origin of each lung.

## CNC[C@H](O)c1ccc(O)c(O)c1 [epinephrine, reference compound]
[1]; s.c. slow-release emulsion given along with MADB 106 cell inoculation
  effect of epinephrine on LTR: increasing LTR levels

## glucopyranosyl lipid adjuvant [GLA]
[1]; female rats, 2 μg GLA s.c. 24 h before inoculation, p<0.05
  MADB 106 LTR, GLA vs PBS (time course): significant difference
[1]; female rats, 2 μg GLA s.c. 48 h before inoculation, p<0.05
  MADB 106 LTR, GLA vs PBS (time course): significant difference
[1]; male rats, 2 μg GLA s.c. 4 h before inoculation, p<0.05
  MADB 106 LTR, GLA vs PBS (time course): significant difference
[1]; male rats, 2 μg GLA s.c. 12 h before inoculation, p<0.0001
  MADB 106 LTR, GLA vs PBS (time course): significant difference
[1]; male rats, 2 μg GLA s.c. 24 h before inoculation, p<0.0001
  MADB 106 LTR, GLA vs PBS (time course): significant difference
[1]; male rats, 2 μg GLA s.c. 48 h before inoculation, p<0.0001
  MADB 106 LTR, GLA vs PBS (time course): significant difference
[1]; male rats, NK depletion by anti-NKR-P1 mAb, 2 μg GLA or SE s.c. 24 h before inoculation
  MADB 106 LTR in NK-depleted animals: no effect
[1]; male rats, epinephrine groups, 0.7 μg/animal s.c. 24 h before inoculation, p<0.05
  MADB 106 LTR, additive effect of GLA over SE: significant improvements
[1]; male rats, epinephrine groups, 2.5 μg/animal s.c. 24 h before inoculation, p<0.01
  MADB 106 LTR, additive effect of GLA over SE: significant improvements
[1]; male rats, epinephrine groups, 10 μg/animal s.c. 24 h before inoculation, p<0.01
  MADB 106 LTR, additive effect of GLA over SE: significant improvements
[1]; male rats, epinephrine groups, 20 μg/animal s.c. 24 h before inoculation, p<0.001
  MADB 106 LTR, additive effect of GLA over SE: significant improvements
[1]; male rats, epinephrine groups, 0.3-20 μg/animal
  reduction of the epinephrine effect on LTR, relation to dosage: positively correlated with its dosage
[1]; male rats, epinephrine groups, all GLA doses (0.3-20 μg/animal) s.c. 24 h before tumor inoculation, p<0.0001
  MADB 106 LTR, GLA over PBS: significant improvement
[1]; male rats, no NK depletion, 2 μg GLA s.c. 24 h before inoculation, p<0.01
  MADB 106 LTR, GLA vs PBS, no-depletion condition: significant difference
[1]; male rats, s.c. 24 h before inoculation
  dosage giving an additive effect for GLA over SE effects on LTR: ≥ 0.7 μg per animal
[1]; male rats, vehicle (no epinephrine) groups, 0.7 μg/animal s.c. 24 h before inoculation, p<0.05
  MADB 106 LTR, GLA over PBS: significant improvement
[1]; male rats, vehicle (no epinephrine) groups, 2.5 μg/animal s.c. 24 h before inoculation, p<0.01
  MADB 106 LTR, GLA over PBS: significant improvement
[1]; male rats, vehicle (no epinephrine) groups, 10 μg/animal s.c. 24 h before inoculation, p<0.05
  MADB 106 LTR, GLA over PBS: significant improvement
[1]; male rats, vehicle (no epinephrine) groups, 20 μg/animal s.c. 24 h before inoculation, p<0.01
  MADB 106 LTR, GLA over PBS: significant improvement
[2]; p<0.01
  number of lung surface metastases, GLA vs SE: significant difference
[2]; p<0.05
  number of lung surface metastases, GLA vs PBS: significant difference
